Assay results: patent US20150335624A1, “COMPOSITIONS AND METHODS FOR USING HUPERZINE AND ANALOGS THEREOF” (INSERO HEALTH INC., priority 2013, published 2015)
“And” between values parts separate entries of the source, which are not always exact repeats. Identical values can stand only once.

Legend:
Type in all cases: in vivo, human
[1] = Phase 1 clinical trial, peak plasma level of huperzine A
Protocol: (§1) A phase 1 clinical trial was conducted with huperzine A. The primary aim of the study was to conduct a proof-of-principle assessment of the safety and tolerability and early stage pharmacokinetics of dietary supplement Huperzine A up to 6.4 mg/day as add-on, open-label therapy in 8 subjects with drug-resistant epilepsy. The hypothesis was that Huperzine A in 8 subjects with drug-resistant epilepsy as add-on; open-label therapy would be well tolerated when titrated from 1.6 mg/day up to 6.4 mg/day. The secondary aim was to acquire preliminary data on the parasympathetic effect of Huperzine A on cardiac function.
(§2) The trial was a single-center, in-patient, open-label, dose-escalation study conducted at one site. This study would enroll up to 10 adults (≧18 years to 65 years) to obtain 8 randomized subjects with drug-resistant epilepsy that were not well controlled with 1 to 3 concomitant anti-epileptic drugs (AEDs).
The study drug was supplied as 0.200 mg tablets and dispensed by the study site's pharmacy. Huperzine A tablets derived from Huperzia serrata were sourced from a commercially available supplier in the United States.
Randomly chosen tablets of the supplied trial medication, as well as a composite have been assessed for purity by an independent laboratory using standard analytic techniques (HPLC) and found to contain between 0.145 mg and 0.166 mg of Huperzine A per tablet. Subject dosing was based on the label potency of the tablets (i.e. 0.200 mg). Tablets were randomly assigned to each subject in a dosing bottle container containing 120 tablets per subject. Each bottle was labeled with a study identifier. subject ID, dose of each tablet, dosing instructions, expiration date, and lot number.
(§3) Eight subjects with drug-resistant epilepsy were provided huperzine A. Six subjects completed the study. Doses were varied as in Table A. Doses were six hours apart. Subjects 1-3 began dosing at 18:00, subjects 4-8 began dosing at 12:00.

CRP = assay: Phase 1 clinical trial, cardiologic marker CRP
Protocol: as §1, §2, §3
(§4) Table B provides biomarker test results. Baseline, peak and change values represented as mean±the standard error of the mean (SEM). Statistical data is included for all subjects excluding subject #7 because that subject was on a conflicting medication. Peak represents peak plasma level or, if unavailable, the nearest values for all values except cardiological markers where peak represents Day 2. The p-values were calculated from one-sided paired t tests.

[2] = Phase 1 clinical trial, renal marker serum creatinine
Protocol: as §1, §2, §3, §4

[3] = Phase 1 clinical trial, renal marker eGFR (creatinine clearance rate); conditions: excluding #7
Protocol: as §1, §2, §3, §4

IL-1 beta = assay: Phase 1 clinical trial, inflammatory marker IL-1 beta; conditions: excluding #7
Protocol: as §1, §2, §3, §4

IL-6 [4] = assay: Phase 1 clinical trial, inflammatory marker IL-6 (IITR1); conditions: excluding #7
Protocol: as §1, §2, §3, §4

IL-6 [5] = assay: Phase 1 clinical trial, inflammatory marker IL-6 (Labcorp, different test center); conditions: excluding #7
Protocol: as §1, §2, §3, §4

IL-10 = assay: Phase 1 clinical trial, inflammatory marker IL-10; conditions: excluding #7
Protocol: as §1, §2, §3, §4

IL-17 = assay: Phase 1 clinical trial, inflammatory marker IL-17; conditions: excluding #7
Protocol: as §1, §2, §3, §4

TNF-alpha = assay: Phase 1 clinical trial, inflammatory marker TNF-alpha; conditions: excluding #7
Protocol: as §1, §2, §3, §4

MCP-1 = assay: Phase 1 clinical trial, marker MCP-1
Protocol: as §1, §2, §3, §4
Monocyte chemotactic protein-1 (MCP-1) as a marker is implicated in pathogeneses of several diseases characterized by monocytic infiltrates. MCP-1 is involved in the neuroinflammatory processes that take place in the various diseases of the central nervous system, which are characterized by neuronal degeneration. MCP-1 expression in glial cells is increased in epilepsy, brain ischemia, Alzheimer's disease, some encephalomyelitis, and traumatic brain injury.

[6] = Phase 1 clinical trial, ECG recording of cardiac function (heart rate, HRV, TWA, QT, VPB, VT); conditions: for T-wave alternans (TWA): all leads; for TWA elevated: in the normal range
Protocol: as §1, §2, §3
Heart rate, heart rate variability. T-wave alternans, QT interval, ventricular premature beats, and ventricular tachycardia were studied in all 8 subjects enrolled in the study. […] This individual experienced transient peaks in heart rate and a few ventricular premature beats, probably due to an emesis-related surge in sympathetic nerve activity. […] ECG recordings show a transient disconnect in subjects one.

[7] = peak vs baseline, mean ± SEM, excluding #7
[8] = 8 subjects, full recording period
[9] = 8 subjects, full recording period, listed as huperzine

C/C=C1\[C@H]2C=C(C)C[C@]1(N)c1ccc(=O)[nH]c1C2 [Huperzine A, (1R,9,13E)-1-amino-13-ethylidene-11-methyl-6-azatricyclo[7.3.1.0^2,7]trideca-2(7),3,10-trien-5-one]
Peak Plasma ([1]; Subject 1, oral tablets, 4 doses 0.40-0.80 mg six hours apart): 2.6 ng/mL | Peak Plasma ([1]; Subject 2, 3 doses 0.40-0.80 mg six hours apart): 6.7 ng/mL | Peak Plasma ([1]; Subject 3, 12 doses 0.40-0.80 mg six hours apart): 9.6 ng/mL | Peak Plasma ([1]; Subject 4, 11 doses 0.40-0.60 mg six hours apart): 11.8 ng/mL | Peak Plasma ([1]; Subject 5, 13 doses 0.40-0.80 mg six hours apart): 12.9 ng/mL | Peak Plasma ([1]; Subject 6, 13 doses 0.40-0.60 mg six hours apart): 15.9 ng/mL | Peak Plasma ([1]; Subject 7, 13 doses 0.40-0.60 mg six hours apart): 13.2 ng/mL | decrease in CRP (CRP; from an average of 2.6±3.0 mg/L, p-value 0.02): 29% | CRP Peak (CRP; mean ± SEM, subjects excluding #7, peak = Day 2, baseline 2.6 ± 3.0): 1.8 ± 2.3 mg/L | CRP % Change (CRP; peak vs baseline, excluding #7): −29% | CRP Change (CRP; [7]): -0.7 ± 0.8 mg/L | decrease in serum creatinine ([2]; from an average of 0.9 mg/dL, p-value 0.02): 18% | Serum creatine Peak ([2]; mean ± SEM, excluding #7, at peak plasma level, baseline 0.9 ± 0.3): 0.7 ± 0.1 mg/dL | Serum creatine % Change ([2]; peak vs baseline, excluding #7): −18% | Serum creatine Change [2, 7]: -0.2 ± 0.2 mg/dL | eGFR (flow rate) Peak ([3]; mean ± SEM, at peak plasma level, baseline 98.3 ± 23.5): 107.6 ± 13.4 mL/min/1.73 | eGFR (flow rate) % Change ([3]; peak vs baseline): 9% | eGFR (flow rate) Change ([3]; peak vs baseline, mean ± SEM): 9.3 ± 12.7 mL/min/1.73 | IL-1 beta Peak (IL-1 beta; mean ± SEM, at peak plasma level, baseline 23.9 ± 12.4): 30.0 ± 9.8 pg/mL | IL-1 beta % Change (IL-1 beta; peak vs baseline): 26% | IL-1 beta Change (IL-1 beta; peak vs baseline, mean ± SEM): 6.1 ± 5.2 pg/mL | IL-6 (IITR1) Peak (IL-6 [4]; mean ± SEM, at peak plasma level, baseline 1.3 ± 0.2): 2.8 ± 0.7 pg/mL | IL-6 (IITR1) % Change (IL-6 [4]; peak vs baseline): 115% | IL-6 (IITR1) Change (IL-6 [4]; peak vs baseline, mean ± SEM): 1.5 ± 1.5 pg/mL | IL-6 (Labcorp) Peak (IL-6 [5]; mean ± SEM, at peak plasma level, baseline 1.8 ± 1.2): 4.2 ± 2.4 pg/mL | IL-6 (Labcorp) % Change (IL-6 [5]; peak vs baseline): 133% | IL-6 (Labcorp) Change (IL-6 [5]; peak vs baseline, mean ± SEM): 2.4 ± 2.6 pg/mL | IL-10 Peak (IL-10; mean ± SEM, at peak plasma level, baseline 7.3 ± 2.7): 8.8 ± 1.5 pg/mL | IL-10 % Change (IL-10; peak vs baseline): 21% | IL-10 Change (IL-10; peak vs baseline, mean ± SEM): 1.6 ± 1.6 pg/mL | IL-17 Peak (IL-17; mean ± SEM, at peak plasma level, baseline 35.1 ± 17.7): 36.1 ± 19.2 pg/mL | IL-17 % Change (IL-17; peak vs baseline): 3% | IL-17 Change (IL-17; peak vs baseline, mean ± SEM): 1.0 ± 1.0 pg/mL | TNF-alpha Peak (TNF-alpha; mean ± SEM, at peak plasma level, baseline 1.6 ± 0.4): 1.3 ± 0.4 pg/mL | TNF-alpha % Change (TNF-alpha; peak vs baseline): −15% | TNF-alpha Change (TNF-alpha; peak vs baseline, mean ± SEM): -0.2 ± 0.1 pg/mL | decrease in levels of MCP-1 (MCP-1; from an average of 175.2±43.5 pg/mL): 15% | MCP-1 Peak (MCP-1; mean ± SEM, excluding #7, at peak plasma level, baseline 175.2 ± 43.5): 148.9 pg/mL and 148.9 ± 26.3 pg/mL | MCP-1 % Change (MCP-1; peak vs baseline, excluding #7): −15% | MCP-1 Change (MCP-1; [7]): -26.3 ± 28.6 pg/mL | T-wave alternans (TWA) [6, 8]: generally low in all leads | T-wave alternans (TWA) [6, 9]: low TWA levels | QTc interval ([6]; 8 subjects, corrected using Bazett's formula): none of the 8 subjects in the study exhibited an increase in QTc interval | episodes of ventricular tachycardia ([6]; 8 subjects, entire recording period): no episodes of ventricular tachycardia occurred in any of the 8 subjects | Heart rate [6, 8]: stable throughout the recordings in all but one subject | QT interval [6, 8]: unaltered | ventricular premature beat (VPB) count [6, 8]: low | Heart rate [6, 9]: 7 of the 8 subjects exhibited stable heart rates | heart rate variability, low frequency/high frequency (LF/HF) ratio ([6]; 8 subjects, full recording period, normal range about 1 to about 4): stable | cardiac electrical activity ([6]; after huperzine administration): remains normal | LF/HF ratio trend ([6]; during the first 6 hours of recording): trend toward lowering of the LF/HF ratio | TWA elevated ([6]; subject 1007): about 25 μV | increase in heart rate ([6]; subject only, apparently related to emesis): about 120 beats/min | TWA elevated ([6]; subject two, during final 120-beat/min heart rate surge): about 30 μV
